Series [1] relates to methicillin-resistant Staphylococcus aureus (SR3605, ATCC43300). Conditions: in combination with β-Lactamase; Mueller-Hinton broth, pH 7.4, 34 °C; ref [8]; cited from earlier work. The source says:
page 4: 2. Literature survey Table S1. Survey of experimentally proven membrane penetration of POMs according to a search in Scopus (“polyoxometalate” and “membrane penetration”) up to the submission date of the manuscript.

Series [2] in a line: Membrane disruption of liposomes by POM alone (CF fluorescence, DLS). In kind it is biochemical. On the procedure:
It should be noted that the addition of POMs alone (without cargo) retained the stability of the liposomes in the studied concentration range (up to 100 µM), that is, neither an increase in CF fluorescence nor changes in size distribution as obtained by dynamic light scattering experiments (DLS, see Figure S4, Supporting Information) were observed, which would have signaled membrane rupture. These negative controls allowed us to proceed to the carrier experiments, with added cargo.
DLS experiments of the vesicles were carried out on a Malvern Instruments DTS Nano 2000 Zeta‐Sizer. A POM concentration of 100 µM was chosen as default, since this is the highest concentration at which membrane transport was evaluated. The cargo concentration was set to be same as in the transport experiments, namely 10 µM for heptaarginine, 1 µM for protamine, and 0.1 µM for polyarginine. Note that the POMs themselves, with a size of ≈1 nm, fall below the detection limit (>10 nm) of the DLS instrument.
Figure S3. Transport activity, Y, for polyarginine (0.1 µM) in EYPC[…]CF liposomes as a function of the concentration of the different evaluated POMs. Solid lines correspond to the resulting fit with the Hill equation. Blue squares are data obtained at neutral pH, and red stars data obtained at acidic pH.
Table S4. Membrane transport parametersa) of active POMs at neutralb) and acidicc) pH.
HeptaArgd) Protaminee) PolyArgf) carrier pH Hydrolysis/Stability
Ymax [%]g) EC50h) [µM] E i) Ymax [%] EC50 [µM] E Ymax [%] EC50 [µM] E […]
Figure S5. Transport kinetics (left pannels), dose response curves (middle pannels) for cargo transport, and size distribution (by DLS, right pannels) for [PW12]3‒ (top) and [SiW12]4‒ (bottom), measured with EYPC[…]CF liposomes at pH 7.4, but preserving the POM solution at pH 1.2 before addition. As shown in panel a, the addition of [PW12]3‒ alone gave a fluorescence increase, pointing to membrane disruption, which was confirmed by DLS (panel c). […]

The subject of another series is CHO‐K1 cells. Nature of the series: FITC-Arg8 uptake in live cells, confocal imaging. In kind it is cell-based, Chinese hamster. Conditions: carrier 5 µM, 5 min, then FITC-Arg8 5 µM, 30 min, 37 °C, four biological replicates. On the procedure: CHO‐K1 cells were plated into µ‐Slide 8‐well plates (ibidi) at a density of ≈1 × 10^5 cells per well (per 1 mL) and incubated for 24 h in Ham's F‐12 medium containing 10% v/v fetal bovine serum and 1.0% penicillin streptomycin at 37 °C in a 5% CO2 atmosphere. The cells were washed twice with Hank's buffer, incubated for 5 min at 37 °C in Ham's F‐12 medium without phenol red with carrier (5 µM), and subsequently in Ham's F‐12 medium without phenol red with 5 µM FITC‐Arg8 for 30 min at 37 °C. Cells in the absence of carrier were used as control. The cells were washed twice with Hank's buffer containing 100 µg mL^−1 heparin and then washed twice with Ham's F‐12 medium without phenol red. The nuclear staining was performed by incubating the cells with 10 µg mL^−1 Hoechst 33 342 (bis‐benzimide H33342 trihydrochloride) for 10 min at 37 °C. Cells were directly imaged as stated above.

For series [3] the following is noted: ref [11]; cited from earlier work. The source says:
Table 1 Stability of POMs in acidic and neutral pH and membrane transport parameters of different cargo molecules at pH 7.4 | column: Hydrolysis/stability / pH 5.5 ^e); Hydrolysis/stability / pH 7.5 ^f)

Usually MIC stands for the least concentration at which growth counts as inhibited. On to “K4[α‐P^VV^VW^VI 11O40]·4H2O [[PVW11]^4‒]”, for which, in series [1], the minimum inhibitory concentration (MIC) was 800 µg/mL.

Turning to Na3[α‐P^VW^VI 12O40]·nH2O [[PW12]^3‒], the “Membrane disruption with POM solution kept at pH 1.2” value in series [2] (POM alone added to liposomes, POM solution kept at pH 1.2, CF fluorescence) was “strong interaction and membrane disruption”. Further, in series [2] (higher than 100 µM POM, 10 mM Tris, 107 mM NaCl, pH 7.4), the “Vesicle lysis at higher concentrations” value is on record as “led to vesicle lysis”. Further, the “FITC-Arg8 uptake promoted by carrier” value with CHO‐K1 cells is reported as “some apparent cellular uptake, but the cell morphology was highly compromised”; in the series on CHO‐K1 cells (listed as [PW12]3‒), “highly compromised”. The “Hydrolysis/stability pH 7.5” value in series [3] is “to [P^VW^VI 9O34]^9‒ ^j)”.

(Values after PMC11475408, “All‐Inorganic Polyoxometalates Act as Superchaotropic Membrane Carriers” (Advanced Materials (Deerfield Beach, Fla.), 2023).)
